The values below are quoted from earlier work in patent US20020013261A1, “Methods and compositions for promoting angiogenesis using polyethylene glycol (PEG) polymers” (priority 2000, published 2002).

In the data set the test system is vascularization. Particulars: purified recombinant protein injected into ischemic skeletal muscle tissue, rabbit chronic limb ischemia.

As for “basic fibroblast growth factor (bFGF): purified recombinant angiogenic protein”, the vascularization entry is recorded as “modest but significant vascularization”.
